Reference: US12053522B2, “Pro-inflammatory and anti-cancer functions of toll-like receptor 4 antagonists” (Children's Medical Center Corporation, priority 2015, dated 2024)

Key:
Assay type in all cases: cell-based, mouse
bone marrow derived DCs = test: IL-1β release from DCs (ELISA)
Procedure: NLRP3 KO and ASC KO mice were kindly provided by Dr. T. Horng, Harvard School of Public Health. Caspase-11 KO mice were kindly provided by Dr. Junying Yuan, Harvard Medical School. Caspase-1 single KO mice were kindly provided by Thirumala-Devi Kanneganti (St. Judes). DCs were differentiated from bone marrow in IMDM (Gibco), 10% B16-GM-CSF derived supernatant, 2 μM 2-mercaptoethanol and 10% FBS and used after 6 day of culture. […] MO were differentiated from bone marrow in DMEM (Gibco), 30% L929 supernatant, and 10% FBS. Immortal MΦs were cultured in DMEM supplemented with 10% L929 supernatant and 10% FBS. […] For experiments using pan-caspase inhibitor, cells were treated with zVADfmk (20 μM) 30 min before inflammasome activation stimuli addition. Cycloheximide (50 ng/ml) was added at the time of stimuli administration. Transfection with DOTAP was performed following the manufacturer instructions. […] 30 min later, the DOTAP/LPS or DOTAP/oxPAPC complex were added to the culture.
RNA was isolated from cell cultures using Qiashedder (Qiagen) and GeneJET RNA Purification Kit (Life Technologies). Purified RNA was analyzed for gene expression on a CFX384 real time cycler (Bio-rad) using TaqMan RNA-to-CT 1-Step Kit (Applied Biosystems) with probes purchased from Life Technologies specific for viperin (Mm00491265_m1), IFNb1 (Mm00439552_s1), IL6 (Mm00446190_m1), caspase-1 (Mm00438023_m1), caspase-11 (Mm00432307_m1), Nlrp3 (Mm00840904_m1), Asc (Mm00445747_g1), TBP (Mm00446971_m1) or GAPDH (Mm99999915_g1). ELISA for IL-1β, IL-2, IL-17, IL-18, TNFα and IFNγ were performed using Mouse Ready-SET-Go ELISA kits (eBioscience). To measure secreted cytokines, supernatant were collected, clarified by centrifugation and stored at −20° C. Cell associated cytokines were measured as follows: 96-well plates were centrifuged and supernatant was discarded. 250 μl of PBS were added to each well. Cells were frozen and thawed two times at −80° C. and then stored at −20° C. for further analysis.

[1] = tested on: primary bone marrow-derived MΦs; test: IL-1β release from macrophages (ELISA)
Description: (§1) C57BL/6J (Jax 000664), C57BL/6NJ (Jax 005304), CD14 KO (Jax 003726), caspase-1/-11 dKO mice (Jax 016621), TLR4-mutant (C3H/HeJ, Jax 000659), and wild-type control for TLR4-mutant (C3H/HeSNJ, Jax 000661) were purchased from Jackson Labs. NLRP3 KO and ASC KO mice were kindly provided by Dr. T. Horng, Harvard School of Public Health. Caspase-11 KO mice were kindly provided by Dr. Junying Yuan, Harvard Medical School. Caspase-1 single KO mice were kindly provided by Thirumala-Devi Kanneganti (St. Judes). DCs were differentiated from bone marrow in IMDM (Gibco), 10% B16-GM-CSF derived supernatant, 2 μM 2-mercaptoethanol and 10% FBS and used after 6 day of culture. DC purity was assessed by flow cytometry and was usually higher than 90%. […]
RNA was isolated from cell cultures using Qiashedder (Qiagen) and GeneJET RNA Purification Kit (Life Technologies). Purified RNA was analyzed for gene expression on a CFX384 real time cycler (Bio-rad) using TaqMan RNA-to-CT 1-Step Kit (Applied Biosystems) with probes purchased from Life Technologies specific for viperin (Mm00491265_m1), IFNb1 (Mm00439552_s1), IL6 (Mm00446190_m1), caspase-1 (Mm00438023_m1), caspase-11 (Mm00432307_m1), Nlrp3 (Mm00840904_m1), Asc (Mm00445747_g1), TBP (Mm00446971_m1) or GAPDH (Mm99999915_g1). ELISA for IL-1β, IL-2, IL-17, IL-18, TNFα and IFNγ were performed using Mouse Ready-SET-Go ELISA kits (eBioscience). […]

DCs [2] = test: TNFα secretion from DCs (ELISA); conditions: WT and caspase-11 KO DCs
Description: as §1, with “90%. MO were differentiated from bone marrow in DMEM (Gibco), 30% L929 supernatant, and 10% FBS. Immortal MΦs were cultured in DMEM supplemented with 10% L929 supernatant and 10% FBS. Splenic DCs were purified as described previously (Zanoni et al., 2012). Prior to stimulations, cultured cells were washed and re-plated in DMEM supplemented with 10% FBS at a concentration of 1×10^6 cells/ml in a final volume of 100 μl. For experiments using pan-caspase inhibitor, cells were treated with zVADfmk (20 μM) 30 min before inflammasome activation stimuli addition.” for “90%.”
RNA was isolated from cell cultures using Qiashedder (Qiagen) and GeneJET RNA Purification Kit (Life Technologies). Purified RNA was analyzed for gene expression on a CFX384 real time cycler (Bio-rad) using TaqMan RNA-to-CT 1-Step Kit (Applied Biosystems) with probes purchased from Life Technologies specific for viperin (Mm00491265_m1), IFNb1 (Mm00439552_s1), IL6 (Mm00446190_m1), caspase-1 (Mm00438023_m1), caspase-11 (Mm00432307_m1), Nlrp3 (Mm00840904_m1), Asc (Mm00445747_g1), TBP (Mm00446971_m1) or GAPDH (Mm99999915_g1). ELISA for IL-1β, IL-2, IL-17, IL-18, TNFα and IFNγ were performed using Mouse Ready-SET-Go ELISA kits (eBioscience). […] Cell associated cytokines were measured as follows: 96-well plates were centrifuged and supernatant was discarded. […]

LPS-pretreated DCs = test: ASC and caspase-1 containing speck formation (immunofluorescence); conditions: ATP 1 mM, oxPAPC 120 μM
Procedure: For live or permeability experiment, MitotTacker CMX-ROS (Life Technologies) or Zombie Red (BioLegend) dyes were used in according to manufacturer's instructions before fixation with 4% paraformaldehyde. After permeabilization step using 0.1% Triton X-100 0.2% BSA-PBS, cells were blocked in 2% BSA-PBS and incubated with rabbit anti-ASC pAb (AL177, Adipogen) and mouse anti-caspase-1 mAb (Casper-1, Adipogen) followed by Alexa Fluor 488-conjugated chicken anti-rabbit IgG (Life Technologies) and Alexa Fluor 568-conjugated goat anti-mouse IgG (Life Technologies) diluted in blocking buffer. Nuclei were counterstained with DAPI (Life Technologies) or DRAQ5 (BioLegend). A Zeiss Axiovert 200M confocal microscope or an Olympus BX41 fluorescence microscope was used to acquire images.

DCs [3] = test: Pyroptosis / cell death by LDH release; conditions: LPS-primed DCs
Description: In addition to promoting IL-β release, inflammasome activation has been typically associated with the induction of cell death (Aachoui, Y., (2013b). Current opinion in microbiology 16, 319-326). Without wishing to be bound by theory, cell death via non-canonical inflammasomes is believed to depend upon the enzymatic activity of caspase-11, which must cleave at least two proteins, gasdermin d and pannexin-1 (Kayagaki, N. et al., (2015) Nature 526, 666-671; Shi, J. et al., (2015) Nature 526, 660-665; Yang, D. et al., (2015) Immunity 43, 923-932). […] To assess this possibility directly, pyroptosis induction after oxPAPC administration or LPS transfection in LPS-primed DCs was measured. Pyroptosis is characterized by a rapid loss of plasma membrane integrity, which should release cytoplasmic proteins (and organelles) from the cell body. LDH release in the supernatant was used to assess membrane permeabilization of the cell population during pyroptosis. LPS/ATP-treated cells released LDH starting 4 hours after treatment (FIG. 48A); this combination was a well-defined activator of inflammasome-mediated cell death (Aachoui, Y., (2013b). Current opinion in microbiology 16, 319-326). Cells transfected with LPS, independently from LPS priming, died at later time points than cells treated with ATP (FIG. 48A).

DCs [4] = test: Single cell viability assay of inflammasome-containing cells (Zombie dye, active mitochondria); conditions: LPS-pretreated DCs
Procedure: BMDCs cells were treated with LPS (1 μg/mL) for 3 hours before inflammasome-inducing stimuli challenge. For live or permeability experiment, MitotTacker CMX-ROS (Life Technologies) or Zombie Red (BioLegend) dyes were used in according to manufacturer's instructions before fixation with 4% paraformaldehyde. After permeabilization step using 0.1% Triton X-100 0.2% BSA-PBS, cells were blocked in 2% BSA-PBS and incubated with rabbit anti-ASC pAb (AL177, Adipogen) and mouse anti-caspase-1 mAb (Casper-1, Adipogen) followed by Alexa Fluor 488-conjugated chicken anti-rabbit IgG (Life Technologies) and Alexa Fluor 568-conjugated goat anti-mouse IgG (Life Technologies) diluted in blocking buffer. Nuclei were counterstained with DAPI (Life Technologies) or DRAQ5 (BioLegend). A Zeiss Axiovert 200M confocal microscope or an Olympus BX41 fluorescence microscope was used to acquire images.

DCs [5] = test: DC viability / survival (7-AAD staining); conditions: up to 72 hours after treatment; ATP and oxPAPC in LPS-treated DCs
Description: It was contemplated that living cells should resist staining with Zombie dye, a stain that labels the cytosol of cells whose plasma membranes have been disrupted. Cells with intact plasma membranes should also retain functional organelles. In contrast, pyroptotic cells should have lost their organelles and should stain strongly for Zombie dye. […] Moreover, not only did oxPAPC not induce pyroptosis, this lipid counteracted the slow acting death pathways activated by LPS in DCs (Zanoni, I. et al. (2009) Nature 460, 264-268). For this experiment, the health of individual cells within the population up to 72 hours after treatment was assessed by flow cytometry, using the viability stain 7-AAD, which detected genomic DNA within cells whose membranes had been permeabilized (Paterson, A. M. et al., (2011) J Immunol 187, 1097-1105).

formation of ASC and caspase-1-containing specks (LPS-pretreated DCs): induced the formation
Compound: Nc1ncnc2c1ncn2[C@@H]1O[C@H](COP(=O)(O)OP(=O)(O)OP(=O)(O)O)[C@@H](O)[C@H]1O [ATP]
IL-1β release (bone marrow derived DCs; BMDCs lacking caspase-1/-11 or ASC): completely lost | IL-1β release (bone marrow derived DCs; LPS-primed DCs): elicit IL-1β release from DCs in a dose-dependent manner | IL-1β release (bone marrow derived DCs; LPS-primed caspase-11 KO DCs): remained intact | cell-associated IL-1β levels (bone marrow derived DCs; LPS-primed, compared with LPS alone): similar | IL-1β release (bone marrow derived DCs; NLRP3-deficient BMDCs): NLRP3 dependent | IL-1β release (bone marrow derived DCs; Pam3CSK-primed caspase-11 KO cells): remained intact | IL-1β release [1]: promoted the efficient release of IL-1β | TNFα secretion (DCs [2]): not affected | time from which LDH was released (DCs [3]): ≥ 4 h | mitochondria and Zombie dye staining of cells containing ASC specks (DCs [4]): lost mitochondria and stained positive for Zombie dye | DC viability (7-AAD) (DCs [5]): diminished DC viability
